Data as given in patent US20180327396A1, “NOVEL PYRIDINE DERIVATIVES” (Hoffmann-La Roche Inc., priority 2014, published 2018).
Where two headings read alike, the source gives them in different places.

Target: T1, human CB2 receptors (Homo sapiens, UniProt P34972)
T1 construct: expressed in transfected cells; host or cells: CHO cells
Assay: cAMP assay
Assay type: cell-based
Experimental: CHO cells expressing human CB1 or CB2 receptors are seeded 17-24 hours prior to the experiment 50.000 cells per well in a black 96 well plate with flat clear bottom (Corning Costar #3904) in DMEM (Invitrogen No. 31331), 1× HT supplement, with 10% fetal calf serum and incubated at 5% CO2 and 37° C. in a humidified incubator. The growth medium was exchanged with Krebs Ringer Bicarbonate buffer with 1 mM IBMX and incubated at 30° C. for 30 min. Compounds were added to a final assay volume of 100 μl and incubated for 30 min at 30° C. Using the cAMP-Nano-TRF detection kit the assay (Roche Diagnostics) was stopped by the addition of 50 μl lysis reagent (Tris, NaCl, 1.5% Triton X100, 2.5% NP40, 10% NaN3) and 50 μl detection solutions (20 μM mAb Alexa700-cAMP 1:1, and 48 μM Ruthenium-2-AHA-cAMP) and shaken for 2 h at room temperature. The time-resolved energy transfer is measured by a TRF reader (Evotec Technologies GmbH), equipped with a ND:YAG laser as excitation source. The plate is measured twice with the excitation at 355 nm and at the emission with a delay of 100 ns and a gate of 100 ns, total exposure time 10 s at 730 (bandwidth 30 nm) or 645 nm (bandwidth 75 nm), respectively. The FRET signal is calculated as follows: FRET=T730−Alexa730−P(T645−B645) with P=Ru730−B730/Ru645−B645, where T730 is the test well measured at […], T645 is the test well measured at 645 nm, B730 and B645 are the buffer controls at 730 nm and 645 nm, respectively. cAMP content is determined from the function of a standard curve spanning from 10 μM to 0.13 nM cAMP.
EC50 values were determined using Activity Base analysis (ID Business Solution, Limited). The EC50 values for a wide range of cannabinoid agonists generated from this assay for reference compounds were in agreement with the values published in the scientific literature.

[1] = CHO cells expressing human CB2 receptors, read-out: cAMP assay human CB2 EC50

T1 sequence (P34972 whole entry): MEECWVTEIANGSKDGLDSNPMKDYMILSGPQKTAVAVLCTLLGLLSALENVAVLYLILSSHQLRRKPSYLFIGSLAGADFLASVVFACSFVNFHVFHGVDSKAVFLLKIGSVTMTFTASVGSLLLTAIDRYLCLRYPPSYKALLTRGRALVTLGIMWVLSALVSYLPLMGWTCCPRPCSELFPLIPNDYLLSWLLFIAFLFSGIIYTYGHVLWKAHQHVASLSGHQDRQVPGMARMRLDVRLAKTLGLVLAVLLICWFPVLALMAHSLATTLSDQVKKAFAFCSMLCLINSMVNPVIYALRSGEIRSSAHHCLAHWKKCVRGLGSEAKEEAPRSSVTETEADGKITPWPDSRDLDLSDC

SMILES	EC50	EC50 [1]
CC(C)(CO)c1cc(NC(=O)c2ccc(C3CC3)c(OCC3CC3)n2)on1 [Example 19, 5-Cyclopropyl-6-(cyclopropylmethoxy)-N-[3-(1-hydroxy-2-methylpropan-2-yl)-1,2-oxazol-5-yl]pyridine-2-carboxamide]	139 nM	–
CC(C)(Cc1nc(C2CC2)no1)NC(=O)c1cccc(-c2cccc(Cl)c2)n1 [Example 7, 6-(3-Chlorophenyl)-N-[1-(3-cyclopropyl-1,2,4-oxadiazol-5-yl)-2-methylpropan-2-yl]pyridine-2-carboxamide]	244 nM	–
CC(C)(Cc1nnc(-c2ccc(F)cc2)o1)NC(=O)c1ccc(N2CC(F)(F)C2)c(OCC2CC2)n1 [Example 27, 6-(Cyclopropylmethoxy)-5-(3,3-difluoroazetidin-1-yl)-N-[1-[5-(4-fluorophenyl)-1,3,4-oxadiazol-2-yl]-2-methylpropan-2-yl]pyridine-2-carboxamide]	–	2890 nM
COCCOCC(C)(C)c1cc(NC(=O)c2ccc(C3CC3)c(OCC3CC3)n2)on1 [Example 18, 5-Cyclopropyl-6-(cyclopropylmethoxy)-N-[3-[1-(2-methoxyethoxy)-2-methylpropan-2-yl]-1,2-oxazol-5-yl]pyridine-2-carboxamide]	35.2 nM	–
CC(C)(C)OC(=O)N1CCOC(CNC(=O)c2ccc(C3CC3)c(Cc3ccc(F)cc3)n2)C1 (stereo not drawn) [Example 22, tert-Butyl 2-[[[5-cyclopropyl-6-[(4-fluorophenyl)methyl]pyridine-2-carbonyl]amino]methyl]morpholine-4-carboxylate]	101 nM	–
CC(C)(Cc1nnc(-c2ccccc2)o1)NC(=O)c1ccc(C2CC2)c(-c2ccc(Cl)cc2)n1 [Example 10, 6-(4-Chlorophenyl)-5-cyclopropyl-N-[2-methyl-1-(5-phenyl-1,3,4-oxadiazol-2-yl)propan-2-yl]pyridine-2-carboxamide]	265 nM	–
CC(C)(Cc1nnc(-c2ccccc2)o1)NC(=O)c1ccc(Nc2ccc(Cl)cc2Cl)c(Cl)n1 [Example 9, 6-Chloro-5-(2,4-dichloroanilino)-N-[2-methyl-1-(5-phenyl-1,3,4-oxadiazol-2-yl)propan-2-yl]pyridine-2-carboxamide]	36.7 nM	–
CC(C)(Cc1nnc(-c2ccccc2)o1)NC(=O)c1cccc(OCC(F)(F)F)n1 [Example 3, N-[2-Methyl-1-(5-phenyl-1,3,4-oxadiazol-2-yl)propan-2-yl]-6-(2,2,2-trifluoroethoxy)pyridine-2-carboxamide]	132 nM	–
CC(C)(Cc1nnc(-c2ccccc2)o1)NC(=O)c1cccc(-c2cccc(Cl)c2)n1 [Example 6, 6-(3-Chlorophenyl)-N-[2-methyl-1-(5-phenyl-1,3,4-oxadiazol-2-yl)propan-2-yl]pyridine-2-carboxamide]	182 nM	–
CC(C)(Cc1nc(-c2ccccc2)no1)NC(=O)c1cccc(-c2cccc(Cl)c2)n1 [Example 8, 6-(3-Chlorophenyl)-N-[2-methyl-1-(3-phenyl-1,2,4-oxadiazol-5-yl)propan-2-yl]pyridine-2-carboxamide]	–	194 nM
COCCOCC(C)(C)c1cc(NC(=O)c2ccc(N3CC(F)(F)C3)c(OCC3CC3)n2)on1 [Example 16, 6-(Cyclopropylmethoxy)-5-(3,3-difluoroazetidin-1-yl)-N-[3-[1-(2-methoxyethoxy)-2-methylpropan-2-yl]-1,2-oxazol-5-yl]pyridine-2-carboxamide]	218 nM	–
COCCOc1cccc(C(=O)NC(C)(C)Cc2nc(-c3ccccc3)no2)n1 [Example 11, 6-(2-Methoxyethoxy)-N-[2-methyl-1-(3-phenyl-1,2,4-oxadiazol-5-yl)propan-2-yl]pyridine-2-carboxamide]	573 nM	–
CCOCCOCC(C)(C)c1cc(NC(=O)c2ccc(C3CC3)c(OCC3CC3)n2)on1 [Example 20, 5-Cyclopropyl-6-(cyclopropylmethoxy)-N-[3-[1-(2-ethoxyethoxy)-2-methylpropan-2-yl]-1,2-oxazol-5-yl]pyridine-2-carboxamide]	22.5 nM	–
O=C(NC12CC3CC(CC(O)(C3)C1)C2)c1ccc(N2CC(F)(F)C2)c(OCC2CC2)n1 [Example 21, 6-(Cyclopropylmethoxy)-5-(3,3-difluoroazetidin-1-yl)-N-(3-hydroxy-1-adamantyl)pyridine-2-carboxamide]	81.6 nM	–
Cc1nnc(C(C)(C)NC(=O)c2cccc(-c3ccc(Cl)cc3Cl)n2)o1 [Example 15, 6-(2,4-Dichlorophenyl)-N-[2-(5-methyl-1,3,4-oxadiazol-2-yl)propan-2-yl]pyridine-2-carboxamide]	107 nM	–
CC(C)(Cc1nnc(C2CCC2)o1)NC(=O)c1cccc(-c2cccc(Cl)c2)n1 [Example 13, 6-(3-Chlorophenyl)-N-[1-(5-cyclobutyl-1,3,4-oxadiazol-2-yl)-2-methylpropan-2-yl]pyridine-2-carboxamide]	294 nM	–
CC(C)(Cc1nnc(-c2ccc(F)cc2)o1)NC(=O)c1ccc(C2CCCC2)c(OCC2CC2)n1 [Example 28, 5-Cyclopentyl-6-(cyclopropylmethoxy)-N-[1-[5-(4-fluorophenyl)-1,3,4-oxadiazol-2-yl]-2-methylpropan-2-yl]pyridine-2-carboxamide]	–	2760 nM
CC(C)(CO)c1cc(NC(=O)c2cnc(C3CC3)c(OCC3CC3)n2)on1 [Example 25, 5-Cyclopropyl-6-(cyclopropylmethoxy)-N-[3-(1-hydroxy-2-methylpropan-2-yl)-1,2-oxazol-5-yl]pyrazine-2-carboxamide]	51.6 nM	–
CC(C)(NC(=O)c1cccc(-c2ccc(Cl)cc2Cl)n1)c1nnc(-c2ccccc2)o1 [Example 14, 6-(2,4-Dichlorophenyl)-N-[2-(5-phenyl-1,3,4-oxadiazol-2-yl)propan-2-yl]pyridine-2-carboxamide]	227 nM	–
CC(C)(Cc1nc(-c2ccccc2)no1)NC(=O)c1cccc(OCC(F)(F)F)n1 [Example 5, N-[2-Methyl-1-(3-phenyl-1,2,4-oxadiazol-5-yl)propan-2-yl]-6-(2,2,2-trifluoroethoxy)pyridine-2-carboxamide]	–	554 nM
CC(C)(Cc1nnc(-c2ccccc2)o1)NC(=O)c1cccc(-c2ccc(Cl)cc2)n1 [Example 2, 6-(4-Chlorophenyl)-N-[2-methyl-1-(5-phenyl-1,3,4-oxadiazol-2-yl)propan-2-yl]pyridine-2-carboxamide]	–	165 nM
CC(C)(Cc1nc(-c2ccccc2)no1)NC(=O)c1cccc(N2CCCC2=O)n1 [Example 12, N-[2-Methyl-1-(3-phenyl-1,2,4-oxadiazol-5-yl)propan-2-yl]-6-(2-oxopyrrolidin-1-yl)pyridine-2-carboxamide]	–	662 nM
CC(C)(Cc1nc(-c2ccccc2)no1)NC(=O)c1cccc(-c2ccc(Cl)cc2)n1 [Example 4, 6-(4-Chlorophenyl)-N-[2-methyl-1-(3-phenyl-1,2,4-oxadiazol-5-yl)propan-2-yl]pyridine-2-carboxamide]	339 nM	–
CCOCCOCC(C)(C)c1cc(NC(=O)c2ccc(C3CCCC3)c(OCC3CC3)n2)on1 [Example 30, 5-Cyclopentyl-6-(cyclopropylmethoxy)-N-[3-[1-(2-ethoxyethoxy)-2-methylpropan-2-yl]-1,2-oxazol-5-yl]pyridine-2-carboxamide]	–	176 nM
NC(=O)[C@H]1CSCCN1C(=O)c1cnc(C2CC2)c(OCC2CC2)n1 [Example 23, (+)-4-[5-Cyclopropyl-6-(cyclopropylmethoxy)pyrazine-2-carbonyl]thiomorpholine-3-carboxamide]	589 nM	–
CC(C)(CO)n1cc(NC(=O)c2ccc(C3CC3)c(OCC3CC3)n2)cn1 [Example 17, 5-Cyclopropyl-6-(cyclopropylmethoxy)-N-[1-(1-hydroxy-2-methylpropan-2-yl)pyrazol-4-yl]pyridine-2-carboxamide]	224 nM	–
CC(C)(COC1CCCCO1)c1cc(NC(=O)c2cnc(C3CC3)c(OCC3CC3)n2)on1 (stereo not drawn) [Example 24, 5-Cyclopropyl-6-(cyclopropylmethoxy)-N-[3-[2-methyl-1-(oxan-2-yloxy)propan-2-yl]-1,2-oxazol-5-yl]pyrazine-2-carboxamide]	75.2 nM	–
CC(C)(Cc1nnc(C2CC2)o1)NC(=O)c1cccc(-c2ccc(Cl)cc2)n1 [Example 1, 6-(4-Chlorophenyl)-N-[1-(5-cyclopropyl-1,3,4-oxadiazol-2-yl)-2-methylpropan-2-yl]pyridine-2-carboxamide]	497 nM	–
CC(C)(CN=[N+]=[N-])c1cc(NC(=O)c2cnc(C3CC3)c(OCC3CC3)n2)on1 [Example 26, N-[3-(1-Azido-2-methylpropan-2-yl)-1,2-oxazol-5-yl]-5-cyclopropyl-6-(cyclopropylmethoxy)pyrazine-2-carboxamide]	12.4 nM	–
COCCOCC(C)(C)c1cc(NC(=O)c2ccc(C3CCCC3)c(OCC3CC3)n2)on1 [Example 29, 5-Cyclopentyl-6-(cyclopropylmethoxy)-N-[3-[1-(2-methoxyethoxy)-2-methylpropan-2-yl]-1,2-oxazol-5-yl]pyridine-2-carboxamide]	–	175 nM
